{"source": "paper PMC4418694", "about": "“Crystal Structure of Fad35R from Mycobacterium tuberculosis H37Rv in the Apo-State” (PLoS ONE, 2015)", "target": "T1, Fad35R (Mycobacterium tuberculosis, UniProt O06169)", "T1 construct": "gene Rv2506", "T1 sequence (O06169 entry or part of it)": "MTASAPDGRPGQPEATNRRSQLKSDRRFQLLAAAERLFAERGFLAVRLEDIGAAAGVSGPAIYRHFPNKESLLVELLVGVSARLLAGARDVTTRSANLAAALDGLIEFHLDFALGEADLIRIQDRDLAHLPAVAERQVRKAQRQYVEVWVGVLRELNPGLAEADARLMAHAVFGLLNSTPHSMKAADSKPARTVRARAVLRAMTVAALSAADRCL"}
{"smiles": "CN(C)[C@@H]1C(=O)C(C(N)=O)=C(O)[C@@]2(O)C(=O)C3=C(O)c4c(O)cccc4[C@@](C)(O)[C@H]3C[C@@H]12", "note": "[tetracycline]", "values": [{"measurement": "ligand-induced oligomerization: dynamic light scattering, size-exclusion chromat", "result": "Tc bound Fad35R has the propensity to form higher oligomers"}]}
